The text below walks through data of patent US7094581B2, “Hyaluronan synthases and methods of making and using same” (The Board of Regents of the University of Oklahoma, priority 1998, dated 2006).

Each structure is given as a SMILES string. Like-named read-outs stand apart in the source and are kept apart here.

For the test, the system named is wild-type seHAS. Put plainly: Utilization of UDP-GlcUA and UDP-GlcNAc by wild-type seHAS after NEM or sodium arsenite treatment. The class given is biochemical, Streptococcus equisimilis. To be noted: membranes 4° C. 1 h with 5 mM NEM or 10 mM sodium arsenite. As to the method: FIG. 3. Effect of NEM or sodium arsenite treatment on the utilization of UDP-GIcUA and UDP-GIcNAc by wild-type seHAS. E. coli membranes containing seHAS protein were incubated at 4° C. for 1 h in PBS containing 5 mM NEM or 10 mM Sodium Arsenite (SodArs), and the control membranes were incubated with PBS alone. Michaelis-Menten constants (Km) were calculated from the activities of seHAS at varying concentrations of UDP-GIcUA or UDP-GIcNAc.
Modification of the protein by NEM could affect any one or several of the six discrete functions that HAS must perform in order to synthesize HA. In order to determine if one of the nucleotide-sugar binding sites was affected by NEM, we examined the UDP-GIcUA and UDP-GIcNAc saturation profiles for treated and untreated seHAS (FIG. 3 and Table III).
E. coli SURE cells transformed with plasmids containing various seHAS mutants were grown in LB medium with vigorous shaking at 32° C. to A600 ˜0.8 and induced with 1 mM isopropyl-β-thiogalactoside for 3 h. Cells were harvested and membranes were prepared as described previously. The kinetic constants for HAS were determined at 37° C. in 100 μl of 50 mM sodium and potassium phosphate, pH 7.0, with 20 mM MgCl2, 1 mM DTE, 240 μM UDP-GIcUA, 0.7 μM UDP-[^14C]GIcUA and 0.6–1.0 mM UDP-GIcNAc. in 100 μl of 25 mM sodium and potassium phosphate, pH 7, containing 50 mM NaCl, 20 mM MgCl2, 1 mM dithiothreitol, 1 mM UDP-GIcUA, 0.68 μM UDP-GIcUA and 1 mM UDP-GIcNAc. Some assays also contained 0.1 mM EDTA and 20% glycerol (v/v). To initiate the enzyme reaction, ˜0.5–40 μg of membrane protein was added and the mixtures were gently shaken in a MicroMixer X-36 (Tiatec) at 30° C. for 1–2 h. Reactions were terminated by the addition of SDS to a final concentration of 2% (w/v). The incorporation of radioactive [^14C]GIcUA was determined by descending paper chromatography and the Km and Vmax values were determined as described by Tlapak-Simmons et al (1999b). Data were analyzed by the methods of Michaelis-Menton or Hill. Protein content was determined by the method of Bradford using bovine serum albumin as the standard. All Cys-mutant or sulfhydryl-treated seHAS samples were assayed in duplicate or triplicate using two or three independent membrane preparations. Results are presented as the mean±standard errors. All enzyme assays were performed under conditions that were linear with respect to time and protein concentration. None of the seHAS variant enzymes were unstable under the conditions employed.

Consider `CCN1C(=O)C=CC1=O` [N-ethylmaleimide], for which the “Vmax of treated wild-type seHAS, UDP-GlcNAc” value was 7.3 ± 2.2 nmol/µg/h and the “Vmax of treated wild-type seHAS, UDP-GlcUA” value came to 7.3 ± 2.2 nmol/µg/h. Besides, the Km (read-out: Km for UDP-GlcNAc of treated wild-type seHAS) came to 82 ± 17 µM. The Km (read-out: Km for UDP-GlcUA of treated wild-type seHAS) is 57 ± 5 µM.

Broadly, the Km is the concentration of substrate that gives half-maximal velocity.
